The values below come from US20250243194A1, “ANTAGONIST OF ADENOSINE RECEPTORS” (AdoRx Therapeutics Limited, priority 2022, published 2025).

Test [1] deals with human Adenosine A1 receptor (Homo sapiens (Human), UniProt P30542). Kind of test: Adenosine receptor TR-FRET binding assay (A1). Conditions: inhibition of binding of 100 nM CA200645; CHO cell membranes; Ki from IC50 by Cheng and Prusoff. Here is the method: (§1) All FRET binding experiments were conducted at room temperature in white 384-well plates, in assay binding buffer containing 1× LabMed (Cisbio, France), 100 μg/mL saponin, 1% DMSO and 0.02% pluronic acid. Binding of the fluorescently labelled Adenosine receptor antagonist XAC (CA200645, FRET acceptor) to terbium-labelled A1, A2a, A2b and A3 adenosine receptors (FRET donors) was detected by time-resolved FRET due to the close proximity of the donor and acceptor in a binding event. To investigate the ability of unlabelled test compounds to bind to Adenosine A1, A2a, A2b and A3 receptors, dose response curves were constructed that determined the ability of a range of concentrations to inhibit the binding of 30 nM CA200645 to the A2b receptor and 100 nM CA200645 to the A1, A2a, and A3 receptor.
(§2) Serial dilution (1:3 dilutions) of test compounds in neat DMSO and transfer of a 400 nL sample of test compound into the assay plate was carried out using the Mosquito (TTP Labtech, UK). The compound samples were incubated for 2 hours at room temperature with a fixed concentration of CA200645 defined for each receptor (see above) and CHO cell membranes containing the human Adenosine A1 (0.5 μg/well), A2a (0.3 μg/well), A2b (1 μg/well) or A3 (1 μg/well) receptor in 40 μL of assay buffer. Total and non-specific binding of CA200645 was determined in the absence and presence of 10 μM XAC, respectively. Following 2 hours incubation, the level of CA200645 binding was detected on a Pherastar FSX (BMG Labtech, Germany) using standard TR-FRET settings. The terbium donor was excited with three laser flashes at a wavelength of 337 nm, and donor and acceptor emission was detected at 620 nm and 665 nm wavelengths, respectively. FRET ratios were obtained by multiplying the acceptor/donor ratio value by 10,000. Specific binding was determined by subtracting the non-specific binding FRET ratio from the total binding FRET ratio. Compound IC50 curves were analysed using GraphPad Prism 7.0 (GraphPad, USA) and Ki affinity values were determined from the obtained IC50 values using the method of Cheng and Prusoff.

Test [2] has as its target human Adenosine A2a receptor (Homo sapiens (Human), UniProt P29274). Kind of test: Adenosine receptor TR-FRET binding assay (A2a). As to conditions: inhibition of binding of 100 nM CA200645; CHO cell membranes; Ki from IC50 by Cheng and Prusoff. As for the experimental part:
as §1, §2

Test [3] concerns the target human Adenosine A2b receptor (Homo sapiens (Human), UniProt P29275). Kind of test: Adenosine receptor TR-FRET binding assay (A2b). Conditions: inhibition of binding of 30 nM CA200645; CHO cell membranes; Ki from IC50 by Cheng and Prusoff. Here is the method: as §1, §2
For test [4], the target named is human Adenosine A3 receptor (Homo sapiens (Human), UniProt P0DMS8). Kind of test: Adenosine receptor TR-FRET binding assay (A3). As to conditions: inhibition of binding of 100 nM CA200645; CHO cell membranes; Ki from IC50 by Cheng and Prusoff. Here is the method:
as §1, §2

The subject of test [5] is CD8+ T cells in human whole blood. Kind of test: Measurement of pCREB in CD8+ T cells in human whole blood. As to conditions: T-cell, 3 μM NECA, rolipram, FACS. The format is cell-based. As for the experimental part:
Heparinised human whole blood was pre-incubated at 37° C. with serial dilutions of A2a antagonists for 20 min. and the phosphodiesterase inhibitor rolipram to amplify the pCREB response. The adenosine receptor agonist NECA is then added at a final concentration of 3 μM and following a 60 min incubation the blood is fixed and red blood cells lysed. White blood cells are isolated, permeabilized and stained with directly conjugated fluorescent antibodies to phospho-CREB (Alexa Fluor 488) and CD8 (Alexa Fluor 647) and the level of phospho-CREB in CD8+ T cells is measured by FACS using a BD Accuri C6 Flow Cytometer.

Chain of human Adenosine A2b receptor (P29275 whole entry): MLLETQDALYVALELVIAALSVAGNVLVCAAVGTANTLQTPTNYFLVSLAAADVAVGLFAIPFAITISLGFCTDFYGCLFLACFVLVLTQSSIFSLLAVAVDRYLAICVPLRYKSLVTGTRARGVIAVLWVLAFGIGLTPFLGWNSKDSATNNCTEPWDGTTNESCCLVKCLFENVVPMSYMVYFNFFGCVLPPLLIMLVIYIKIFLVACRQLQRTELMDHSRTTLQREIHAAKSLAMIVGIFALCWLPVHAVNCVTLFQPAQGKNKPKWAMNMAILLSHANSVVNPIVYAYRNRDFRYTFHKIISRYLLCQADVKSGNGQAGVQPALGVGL
Chain of human Adenosine A2a receptor (P29274 whole entry): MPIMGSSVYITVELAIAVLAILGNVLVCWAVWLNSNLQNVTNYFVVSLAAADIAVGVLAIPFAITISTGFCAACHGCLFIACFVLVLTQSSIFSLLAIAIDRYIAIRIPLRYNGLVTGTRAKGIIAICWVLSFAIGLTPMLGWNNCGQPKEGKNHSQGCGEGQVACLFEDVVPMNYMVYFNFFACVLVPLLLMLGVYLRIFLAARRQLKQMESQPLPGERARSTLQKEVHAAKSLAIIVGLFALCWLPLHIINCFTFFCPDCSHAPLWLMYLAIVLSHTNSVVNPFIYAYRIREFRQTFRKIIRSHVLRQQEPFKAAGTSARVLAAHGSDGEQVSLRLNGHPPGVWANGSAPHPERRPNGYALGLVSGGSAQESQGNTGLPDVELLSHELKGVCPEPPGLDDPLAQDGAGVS
Chain of human Adenosine A3 receptor (P0DMS8 whole entry): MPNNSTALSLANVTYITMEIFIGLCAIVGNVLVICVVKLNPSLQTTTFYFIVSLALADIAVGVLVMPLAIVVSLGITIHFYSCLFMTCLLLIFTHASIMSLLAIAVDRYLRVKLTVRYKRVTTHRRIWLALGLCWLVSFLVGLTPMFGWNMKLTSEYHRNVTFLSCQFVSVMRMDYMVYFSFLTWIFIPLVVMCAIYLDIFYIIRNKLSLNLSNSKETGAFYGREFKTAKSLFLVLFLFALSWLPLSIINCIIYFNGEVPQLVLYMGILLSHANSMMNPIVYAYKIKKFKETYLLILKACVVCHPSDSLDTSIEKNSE
Chain of human Adenosine A1 receptor (P30542 whole entry): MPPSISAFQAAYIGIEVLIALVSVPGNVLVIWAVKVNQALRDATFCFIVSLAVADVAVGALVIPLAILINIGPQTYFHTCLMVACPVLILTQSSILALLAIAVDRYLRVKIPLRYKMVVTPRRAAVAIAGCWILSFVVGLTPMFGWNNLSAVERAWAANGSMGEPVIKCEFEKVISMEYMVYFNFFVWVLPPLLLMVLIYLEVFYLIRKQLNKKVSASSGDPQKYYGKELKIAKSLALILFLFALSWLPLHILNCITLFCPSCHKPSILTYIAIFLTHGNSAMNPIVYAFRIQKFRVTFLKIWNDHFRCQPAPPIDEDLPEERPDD

Take `Cc1ncnc2ccc(-c3sc(NC(=O)N4CC[C@@](C)(C#N)C4)nc3-c3cccc(C#N)c3)cc12` [Example 7.1, (3R)-3-Cyano-N-[4-(3-cyanophenyl)-5-(4-methylquinazolin-6-yl)thiazol-2-yl]-3-methyl-pyrrolidine-1-carboxamide]: the Ki in test [1] was 121 nM; in test [2], 36.9 nM; in test [3], 0.9 nM; in test [4], 828 nM.

For `Cc1cc(-c2sc(NC(=O)N3CC4(COC4)C3)nc2-c2cccc(C#N)c2)c2cc[nH]c2n1` [Example 34, N-[4-(3-Cyanophenyl)-5-(6-methyl-1H-pyrrolo[2,3-b]pyridin-4-yl)thiazol-2-yl]-2-oxa-6-azaspiro[3.3]heptane-6-carboxamide], the Ki in test [1] turned out to be 290 nM; in test [2], 7.4 nM; in test [3] it was 7.6 nM; in test [4] it was 260 nM.

For `Cn1cnc2ccc(-c3sc(NC(=O)N4CC5(COC5)C4)nc3-c3cccc(C#N)c3)cc21` [Example 25, N-[4-(3-Cyanophenyl)-5-(3-methylbenzimidazol-5-yl)thiazol-2-yl]-2-oxa-6-azaspiro[3.3]heptane-6-carboxamide], the Ki in test [1] is 0.3 nM; in test [2], 0.07 nM; in test [3], 0.5 nM; in test [4], 1730 nM.

Regarding `Cc1cc(-c2sc(NC(=O)N3CC4(COC4)C3)nc2-c2cccc(C#N)c2)cnn1` [Example 31, N-[4-(3-Cyanophenyl)-5-(6-methylpyridazin-4-yl)thiazol-2-yl]-2-oxa-6-azaspiro[3.3]heptane-6-carboxamide], the Ki in test [1] worked out at 57 nM; in test [2], 4.31 nM; in test [3] it was 38.7 nM; in test [4], 1180 nM.

For the compound `N#Cc1cccc(-c2nc(NC(=O)N3CC4(COC4)C3)sc2-c2ccc3nccn3c2)c1` [Example 26, N-[4-(3-Cyanophenyl)-5-imidazo[1,2-a]pyridin-6-yl-thiazol-2-yl]-2-oxa-6-azaspiro[3.3]heptane-6-carboxamide], the Ki stood at 0.3 nM in test [1], 0.33 nM in test [2], 0.5 nM in test [3] and 904 nM in test [4].

As to `Cc1cc(-c2sc(NC(=O)N3CC4(COC4)C3)nc2-c2cccc(C#N)c2)cn2c(C)cnc12` [Example 18, N-[4-(3-Cyanophenyl)-5-(3,8-dimethylimidazo[1,2-a]pyridin-6-yl)thiazol-2-yl]-2-oxa-6-azaspiro[3.3]heptane-6-carboxamide], the Ki came to 1 nM in test [1], 0.11 nM in test [2], 0.9 nM in test [3] and 2630 nM in test [4].

For the compound `Cc1ncnc2ccc(-c3sc(NC(=O)N4CCC5(CNCCO5)C4)nc3-c3cccc(C#N)c3)cc12` (stereo not shown) [Example 4, N-[4-(3-Cyanophenyl)-5-(4-methylquinazolin-6-yl)thiazol-2-yl]-6-oxa-2,9-diazaspiro[4.5]decane-2-carboxamide], the Ki in test [1] worked out at 27 nM; in test [2] it was 0.19 nM; in test [3], 1.9 nM. In addition, in test [5], the IC50 is 10 nM.

On to `Cc1ncnc2ccc(-c3sc(NC(=O)N4CC5(COC5)C4)nc3-c3cccc(C#N)c3)cc12` [Example 7.29, N-[4-(3-Cyanophenyl)-5-(4-methylquinazolin-6-yl)thiazol-2-yl]-2-oxa-6-azaspiro[3.3]heptane-6-carboxamide], for which the figures for the Ki in test [1], in test [2] and in test [3] were 3 nM, 0.09 nM and 0.5 nM, respectively. Further, the IC50 in test [5] was determined as 5 nM.

Turning to `Cc1ncnc2ccc(-c3sc(NC(=O)N4CCC5(CC4)CN(C)CCO5)nc3-c3cccc(C#N)c3)cc12` [Example 7.10, N-[4-(3-Cyanophenyl)-5-(4-methylquinazolin-6-yl)thiazol-2-yl]-4-methyl-1-oxa-4,9-diazaspiro[5.5]undecane-9-carboxamide], the Ki in test [1] stood at 12 nM; in test [2], 0.42 nM; in test [3], 2.8 nM.

`Cc1cc(-c2sc(NC(=O)N3CC4(COC4)C3)nc2-c2cccc(C#N)c2)cn2ccnc12` [Example 29, N-[4-(3-Cyanophenyl)-5-(8-methylimidazo[1,2-a]pyridin-6-yl)thiazol-2-yl]-2-oxa-6-azaspiro[3.3]heptane-6-carboxamide]: the Ki in test [1] amounted to 4 nM; in test [2], 1.88 nM; in test [3], 1.3 nM.

With `Cc1ncnc2ccc(-c3sc(NC(=O)N4CCN(C(C)(C)C#N)CC4)nc3-c3cccc(C#N)c3)cc12` [Example 7.2, 4-(1-Cyano-1-methyl-ethyl)-N-[4-(3-cyanophenyl)-5-(4-methylquinazolin-6-yl)thiazol-2-yl]piperazine-1-carboxamide], the Ki in test [1] turned out to be 9 nM; in test [2], 0.2 nM; in test [3] it was 1.5 nM.

Turning to `Cc1cc(-c2sc(NC(=O)N3CCC(C)(C#N)CC3)nc2-c2cccc(C#N)c2)c2[nH]ncc2n1` [Example 19, 4-Cyano-N-[4-(3-cyanophenyl)-5-(5-methyl-1H-pyrazolo[4,3-b]pyridin-7-yl)thiazol-2-yl]-4-methyl-piperidine-1-carboxamide], the Ki in test [1] was 240 nM; in test [2], 2 nM; in test [3], 1.8 nM. This compound came in with an IC50 in test [5] of 216 nM.

With `Cc1ncnc2ccc(-c3sc(NC(=O)N4CCN[C@H](C(C)(C)O)C4)nc3-c3cccc(C#N)c3)cc12` [Example 7.16, (3S)-N-[4-(3-Cyanophenyl)-5-(4-methylquinazolin-6-yl)thiazol-2-yl]-3-(1-hydroxy-1-methyl-ethyl)piperazine-1-carboxamide], the Ki in test [1] was found to be 17 nM; in test [2] it was 0.18 nM; in test [3], 2.6 nM.

Consider `Cc1ncnc2ccc(-c3sc(NC(=O)N4CCN(CCO)CC4)nc3-c3cccc(C#N)c3)cc12` [Example 7.27, N-[4-(3-Cyanophenyl)-5-(4-methylquinazolin-6-yl)thiazol-2-yl]-4-(2-hydroxyethyl)piperazine-1-carboxamide], for which the figures for the Ki in test [1], in test [2] and in test [3] were 27 nM, 0.48 nM and 3.1 nM, respectively.

As to `Cc1ncnc2ccc(-c3sc(NC(=O)N4CCCNCC4)nc3-c3cccc(C#N)c3)cc12` [Example 7.18, N-[4-(3-Cyanophenyl)-5-(4-methylquinazolin-6-yl)thiazol-2-yl]-1,4-diazepane-1-carboxamide], the Ki stood at 11 nM in test [1], 0.38 nM in test [2] and 2.2 nM in test [3].

With `Cc1ncnc2ccc(-c3sc(NC(=O)N4CCC5(CC4)CNCCO5)nc3-c3cccc(C#N)c3)cc12` [Example 3.1, N-[4-(3-Cyanophenyl)-5-(4-methylquinazolin-6-yl)thiazol-2-yl]-1-oxa-4,9-diazaspiro[5.5]undecane-9-carboxamide], the Ki in test [1] is 48 nM; in test [2], 0.15 nM; in test [3], 1.3 nM. Further, the IC50 in test [5] came out at 10 nM.

Take `N#Cc1cccc(-c2nc(NC(=O)N3CC4(COC4)C3)sc2-c2ccc3ncncc3c2)c1` [Example 10, N-[4-(3-Cyanophenyl)-5-quinazolin-6-yl-thiazol-2-yl]-2-oxa-6-azaspiro[3.3]heptane-6-carboxamide]: the Ki in test [1] turned out to be 7 nM; in test [2] it was 0.85 nM; in test [3] it was 4.7 nM.

As for `Cc1ncnc2ccc(-c3sc(NC(=O)N4CCN(C5CCN(C)CC5)CC4)nc3-c3cccc(C#N)c3)cc12` [Example 7.13, N-[4-(3-Cyanophenyl)-5-(4-methylquinazolin-6-yl)thiazol-2-yl]-4-(1-methyl-4-piperidyl)piperazine-1-carboxamide], the Ki in test [1] was 125 nM; in test [2] it was 1.01 nM; in test [3], 4.8 nM.

Take `Cc1ncnc2ccc(-c3sc(NC(=O)N4CCOC(C(C)(C)O)C4)nc3-c3cccc(C#N)c3)cc12` (racemic) [Example 7.7, N-[4-(3-Cyanophenyl)-5-(4-methylquinazolin-6-yl)thiazol-2-yl]-2-(1-hydroxy-1-methyl-ethyl)morpholine-4-carboxamide]: the Ki in test [1] turned out to be 9 nM; in test [2], 0.26 nM; in test [3] it was 3.6 nM.
